Publication PMC11742793 (BMC Chemistry, 2025)

Biological target: P. falciparum lactate dehydrogenase (PfLDH) (Plasmodium falciparum, UniProt Q76NM3)
Assay: microscale thermophoresis
Assay type: binding

Chain of P. falciparum lactate dehydrogenase (PfLDH) (Q76NM3 1-316): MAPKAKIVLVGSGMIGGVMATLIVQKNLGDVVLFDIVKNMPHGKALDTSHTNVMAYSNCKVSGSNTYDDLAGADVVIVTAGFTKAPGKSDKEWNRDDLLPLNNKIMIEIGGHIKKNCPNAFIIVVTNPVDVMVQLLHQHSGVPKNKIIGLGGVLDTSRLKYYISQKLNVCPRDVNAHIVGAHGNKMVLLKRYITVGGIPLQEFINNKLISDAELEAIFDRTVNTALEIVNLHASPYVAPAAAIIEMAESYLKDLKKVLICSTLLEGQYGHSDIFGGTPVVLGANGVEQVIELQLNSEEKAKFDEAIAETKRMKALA

## C=C(C)[C@@H]1CC[C@]2(C(=O)O)CC[C@]3(C)[C@H](CC[C@@H]4[C@@]5(C)CC[C@H](O)C(C)(C)[C@@H]5CC[C@]43C)[C@@H]12 [BA, betulinic acid]
  Kd: 104 nM
